Values after ≈ are worked out from the molar mass of the structure shown.
Legend:
[1] = tested on: Coxsackie A21 virus (Cox A21); test: Tissue culture testing, Coxsackie A21 virus in HeLa cells; format: cell-based; conditions: 48 and 72 hours, NA = not active at the standard test conditions; for EC50: read-out: Cox A21: lowest concentration of the compound necessary to cause a 50 percent reduction in cytopathic effect
Protocol: (§1) Monolayered HeLa cells in 16 millimeter (mm) tissue culture dishes were treated with 1 ml of culture medium (Eagles medium supplemented with fetal calf serum) containing subject compound at an appropriate concentration or containing no compound at all. Culture media such as those described herein are more fully described in standard texts, as for example, Kuchler's Biochemical Methods in Cell Culture and Virology, Dowden, Hutchinson and Ross, Inc., Stroudsberg, PA (1977). Following treatment, cells were challenged with 0.05 ml of rhinovirus type 1A (RV-1A), rhinovirus type 2 (RV-2) or Coxsackie A21 virus (Cox A21) in culture medium. Some of the compounds were also tested against rhinovirus type 5 (RV-5), rhinovirus type 8 (RV-8) or rhinovirus type 64 (RV-64). Cell controls received no viruses.
(§2) ^2 Lowest concentration of the compound (μg/ml) necessary to cause

rhinovirus type 2 (RV-2) = test: Tissue culture testing, rhinovirus type 2 in HeLa cells; format: cell-based; conditions: 48 and 72 hours, NA = not active at the standard test conditions; for EC50: Enterovirus, read-out: RV-2: lowest concentration of the compound necessary to cause a 50 percent reduction in cytopathic effect
Protocol: as §1, §2

[2] = tested on: rhinovirus type 1A (RV-1A); test: Tissue culture testing, rhinovirus type 1A in HeLa cells; format: cell-based; conditions: 48 and 72 hours, NA = not active at the standard test conditions; for EC50: Enterovirus, read-out: RV-1A: lowest concentration of the compound necessary to cause a 50 percent reduction in cytopathic effect
Protocol: as §1, §2

Coxsackie A21 virus = test: Continuous Oral Feeding test in mice challenged IP with Coxsackie A21 virus; format: in vivo; conditions: for Continuous Oral Feeding X^2 (chi-square, deaths vs control): 0.06 % in diet, 240 h
Protocol: Some of the compounds were also tested in animals utilizing the following procedure, hereainafter referred to as the "Continuous Oral Feeding" test. Coxsackie A21 virus grown on HeLa cells was administered at a concentration that produces 80 to 100% deaths in mice weighing 8 to 12 grams within 10 days, when the mice are injected (IP) with 0.2 ml of virus preparation. Mice were placed on diets containing test compound dispersed in plain commercially available rodent mash chow at a concentration of 0.06% (weight percent) on day 0. On day 1 the mice were challenged with the virus preparation, 0.2 ml/mouse, (IP). Deaths in both control and experimental groups were recorded for the 10 days and the results analyzed by a chi-square (.chi.^2) test. Chi-square values greater than 3.84 indicate the compound is active (95% confidence level).

[3] = Cytotoxicity in tissue culture testing (HeLa monolayers); format: cell-based; conditions: human; HeLa cells; observed at 48 and 72 hours post-treatment; read-out: Cytotoxicity: concentration of the compound found to be toxic to the cell
Protocol: as §1
^1 Cytotoxicity figures represent the concentration of the compound, […]

Cox A21 = test: Single Oral Dose test in mice challenged IP with Cox A21; format: in vivo, Swiss male mice; conditions: 600 mg/kg P.O. 3 h after IP challenge; >3.84 significant (95% confidence level)
Protocol: In addition, some of the compounds were tested in animals utilizing the following procedure, hereinafter referred to as the "Single Oral Dose" test. Swiss male mice, 8-12 grams in weight were challenged intraperitoneally (IP) with 0.2 ml of a normally lethal dose, i.e., a virus dose sufficient to cause […].80-100% mortality in infected animals within 10 days of challenge of Cox A21, in phosphate buffered saline containing 1% heat inactivated fetal calf serum. Three hours later mice were treated orally (P.O.) with 0.2 ml of compound suspended in 0.5% hydroxypropyl methylcellulose (Methocel) or with 0.2 ml of 0.5% Methocel containing no compound. […] Mice were observed daily for 7-10 days post-challenge and deaths recorded. A modified Mantel-Haenzel combined chi-square procedure was used to determine significant difference between virus control and treated groups. Chi-square values greater than 3.84 are considered significant (95% confidence level) in this test.

SMILES	EC50 [1] [µg/mL]	EC50 (rhinovirus type 2 (RV-2)) [µg/mL]	EC50 [2] [µg/mL]	Cox A21: lowest concentration of the compound necessary to cause a 50 percent reduction in cytopathic effect [1]	RV-2: lowest concentration of the compound necessary to cause a 50 percent reduction in cytopathic effect (rhinovirus type 2 (RV-2))	RV-1A: lowest concentration of the compound necessary to cause a 50 percent reduction in cytopathic effect [2]	Continuous Oral Feeding: toxicity of the test compound at the indicated dosage (Coxsackie A21 virus; 0.06% in diet, "toxic" = significantly toxic at the indicated dosage)	Continuous Oral Feeding X^2 (chi-square, deaths vs control) (Coxsackie A21 virus)	MCC [3] [µg/mL]	Single Oral Dose X^2 (chi-square, deaths vs virus control) (Cox A21)
CC(=O)c1ccc(Oc2cccc(S(C)(=O)=O)n2)cc1 [1-(4-((6-(methylsulfonyl)-2-pyridinyl)oxy)phenyl)ethanone]				not active	not active	not active				
CS(=O)(=O)c1ccc(Oc2ccc(Oc3ccccc3)cc2)nc1 [Example 28, 5-(methylsulfonyl)-2-(4-phenoxyphenoxy)pyridine]	50 (≈ 146 µM)	25 (≈ 73.2 µM)					toxic	6.249	> 100	
CSc1ccc(Oc2ccc(Cl)c(Cl)c2)nc1 [Example 38, 2-(3,4-dichlorophenoxy)-5-(methylthio)pyridine]	2.5 (≈ 8.74 µM)	2.5 (≈ 8.74 µM)	1.25 (≈ 4.37 µM)						25	25.233
CCS(=O)(=O)c1ccc(Oc2ccc3c(c2)OCO3)nc1 [Example 41, 5-(ethylsulfonyl)-2-(3,4-methylenedioxyphenoxy)pyridine]		25 (≈ 81.3 µM)							≥ 50	
CCS(=O)(=O)c1ccc(Oc2cc(Cl)c(Cl)cc2Cl)nc1 [Example 48, 5-(ethylsulfonyl)-2-(2,4,5-trichlorophenoxy)pyridine]	6.25 (≈ 17 µM)	3.12 (≈ 8.52 µM)	< 3.12						> 50	
CCCCCCS(=O)(=O)c1ccc(Oc2ccc(Cl)c(Cl)c2)nc1 [Example 54, 2-(3,4-dichlorophenoxy)-5-(n-hexylsulfonyl)pyridine]		12.5 (≈ 32.2 µM)	12.5 (≈ 32.2 µM)					0.162	> 50	

Further lines, with some results ahead:

EC50 [1] [µg/mL]	EC50 (rhinovirus type 2 (RV-2)) [µg/mL]	EC50 [2] [µg/mL]	SMILES	Cox A21: lowest concentration of the compound necessary to cause a 50 percent reduction in cytopathic effect [1]	RV-2: lowest concentration of the compound necessary to cause a 50 percent reduction in cytopathic effect (rhinovirus type 2 (RV-2))	RV-1A: lowest concentration of the compound necessary to cause a 50 percent reduction in cytopathic effect [2]	Continuous Oral Feeding: toxicity of the test compound at the indicated dosage (Coxsackie A21 virus; 0.06% in diet, "toxic" = significantly toxic at the indicated dosage)	Continuous Oral Feeding X^2 (chi-square, deaths vs control) (Coxsackie A21 virus)	MCC [3] [µg/mL]	Single Oral Dose X^2 (chi-square, deaths vs virus control) (Cox A21)
	12.5 (≈ 40.9 µM)		CC(C)(C)c1ccc(Oc2ccc(S(C)(=O)=O)cn2)cc1 [Example 33, 2-(4-(1,1-dimethylethyl)phenoxy)-5-(methylsulfonyl)pyridine]					4.042	> 100	
	12.5 (≈ 42.9 µM)	25 (≈ 85.8 µM)	CC(=O)c1ccc(Oc2ccc(S(C)(=O)=O)cn2)cc1 [Example 34, 1-(4-((5-(methylsulfonyl)-2-pyridinyl)oxy)phenyl)ethanone]					1.727	> 50	
3 (≈ 10.2 µM)	< 2	< 3	CSc1ccc(Oc2ccc(S(C)(=O)=O)cn2)cc1 [Example 37, 2-(4-(methylthio)phenoxy)-5-(methylsulfonyl)pyridine]						> 50	
25 (≈ 78.3 µM)	50 (≈ 157 µM)	50 (≈ 157 µM)	CC(=O)c1ccc(Oc2ccc(S(=O)(=O)C(C)C)cn2)cc1 [Example 52, 1-(4-((5-((1-methylethyl)sulfonyl)-2-pyridinyl)oxy)phenyl)ethanone]					1.140	≥ 50	
12.5 (≈ 31.4 µM)	25 (≈ 62.8 µM)	25 (≈ 62.8 µM)	CCCCCCS(=O)(=O)c1ccc(Oc2ccc(Br)cc2)nc1 [Example 53, 2-(4-bromophenoxy)-5-(n-hexylsulfonyl)pyridine]					2.925	> 50	
3.12 (≈ 8.69 µM)	~12.5 (≈ 34.8 µM)	~12.5 (≈ 34.8 µM)	CC(=O)c1ccc(Oc2ccc(S(=O)(=O)C3CCCCC3)cn2)cc1 [Example 56, 1-(4-((5-(cyclohexylsulfonyl)-2-pyridinyl)oxy)phenyl)ethanone]					0.019	12.5	
6.25 (≈ 15.8 µM)	25 (≈ 63.1 µM)	25 (≈ 63.1 µM)	O=S(=O)(c1ccc(Oc2ccc(Br)cc2)nc1)C1CCCCC1 [Example 57, 2-(4-bromophenoxy)-5-(cyclohexylsulfonyl)pyridine]						50	
